We go through 12 compounds from patent US20130296347A1, “Compositions and Methods for Prophylaxis and Treatment of Addictions” (Omeros Corporation, priority 2007, published 2013).

Structures are written as SMILES. “And” between values parts separate entries of the source, which are not always exact repeats. Identical values can stand only once. “Also recorded” adds a separate entry of the source.

The test system of experiment [1] is heavy tobacco smokers. Briefly: Pilot clinical study in heavy tobacco smokers. It is filed as in vivo, human. Details: overall smoking reduction / inhibition of smoking prior to dropping out: concentration or dose not given beside the values. The settings on record: for Percent inhibition of smoking: baseline data expressed as 100%: T = 0, smoking before entering the treatment; for Percent inhibition of smoking: baseline data expressed as 100% / Percent inhibition of smoking: individual patients; for craving score (visual analogic craving scale): over treatment. As to the method:
Data were recorded for two months, during which patients were seen by the physician every other week. Patients were instructed to record in a personal logbook the number of cigarettes per day and the time of the day smoking occurred. At the end of the study, the logbooks were returned to the clinical personnel who analyzed the data. […] During the first month of treatment, every two weeks, ACTH and cortisol levels were also monitored to evaluate HPA activation before and during treatment.

For experiment [2], the system named is heavy tobacco smokers. Briefly: Pilot clinical study in heavy tobacco smokers. It is filed as in vivo, human.
Experiment [3] concerns msP rats. The experiment in a line: Acute voluntary ethanol intake, free choice 10% alcohol 24 hours a day. It is filed as in vivo, rat. To be noted: for ethanol intake, drug alone (post-hoc): low dose given at 12 hours and 1 hour before access, partner drugs at doses of the examples; for ethanol intake in a pilot study: low dose: fluoxetine 3.0, mirtazapine 5.0, topiramate 30.0, levetiracetam 100.0, gabapentin 60.0 mg/kg OS, ondansetron 1.0, antalarmin […] IP. As to the method:
MsP rats were first trained to drink 10% (w/v) alcohol for 24 hours a day (free choice between water and ethanol). […] Before starting the treatment, rats were trained to gavage administration procedures for three days, during which they received vehicle (distilled water). […] Drinking experiments started at the beginning of the dark cycle. Alcohol, water and food intakes were monitored at 2, 8 and 24 hours after ethanol was made available.
Before starting the treatment, rats were trained to gavage and IP administration procedures for three days. Experiment was conducted in a between subject design (n=22). […] Drinking experiments started at the beginning of the dark cycle. Alcohol, water and food intakes were monitored at 2, 8 and 24 hours after ethanol was made available.
The drinking experiments were conducted at the beginning of the dark cycle, and alcohol, water and food intakes were monitored at 2, 8 and 24 hours after ethanol was made available.
MsP rats were first trained to drink 10% (w/v) alcohol for 24 hours a day (free choice between water and ethanol). […] Rats treated with drug vehicles served as a control. Before starting the treatment, rats were trained to gavage administration for three days, during which they received drugs vehicle (distilled water). […] Drinking experiments started at the beginning of the dark cycle. Alcohol, water, and food intakes were monitored at 2, 8 and 24 hours after ethanol was made available.
(§1) MsP rats were first trained to drink 10% (w/v) alcohol for 24 hours a day (free choice between water and ethanol). […] Rats treated with drug vehicles served as a control. Before starting the treatment, rats were trained to gavage administration for three days, during which they received drugs vehicle (distilled water). […] Drinking experiments started at the beginning of the dark cycle. Alcohol, water and food intakes were monitored at 2, 8 and 24 hours after ethanol was made available.
as §1, §1, §1, §1

The test system of experiment [4] is Long Evans rats. The experiment in a line: Yohimbine-induced reinstatement of nicotine seeking. It is filed as in vivo, rat. To be noted: yohimbine 2.0 mg/kg/ml; p<0.001. As to the method:
Stress and anxiety are major factors in resuming nicotine use in former abstinent users. […] Reinstatement experiments and relative drug treatments were performed every third day. Between reinstatements, extinction baseline was re-established.

Experiment [5] relates to Marchigian Sardinian alcohol-preferring (msP) rats. Briefly: Acute voluntary ethanol intake, alcohol access restricted to 2 hours/day. It is filed as in vivo, rat. As to the method:
(§2) At the beginning of the experiments, msP rats were allowed free choice between water and 10% (v/v) alcohol 24 h/day for at least 15 days. The fluids were offered in graduated drinking tubes equipped with metallic drinking spouts. The position (to the right or left) of alcohol and water drinking tubes was changed daily to avoid the development of side preference. Water and food were available ad libitum, while alcohol access was either restricted to 2 hours/day (Examples 1 and 2) or was available 24 hours/day (Examples 3 and 4). Alcohol, water and food intakes were measured.
. After acquisition of a stable baseline of ethanol intake (6-8 g/kg bw; daily), alcohol access was restricted to 2 hours a day at the beginning of the dark phase. Water and food were freely available.
(§3) […]. Before starting the treatment, rats were trained to gavage administration procedures for three days, during which they received vehicle (distilled water).
Treatments were carried out at intervals of at least three days. […] Drinking experiments were conducted right at the beginning of the dark cycle. Alcohol, water and food intakes were monitored at 30, 60, 90 and 120 minutes after ethanol was made available.
The msP rats (n=8) were prepared for the study as described in Example 1. After acquisition of a stable baseline of ethanol intake, alcohol access was restricted to 2 hours a day at the beginning of the dark phase. Water and food were freely available. […]. The experiment was conducted using a within subject counterbalanced Latine square design where each animal received all drug doses.
These experiments were conducted at the beginning of the dark cycle and alcohol, and water and food intakes were monitored at 30, 60, 90 and 120 minutes after ethanol was made available.

Experiment [6] shares this test system. Briefly: Subchronic (7 days) voluntary ethanol intake, 10% alcohol available 24 hours/day. The settings on record: 7 days; naltrexone […] IP alone or with pioglitazone 10.0 or 30.0 mg/kg OS. It is filed as in vivo, rat. Here is the method: as §2, §3
Alcohol, water and food intakes were monitored at 2, 8 and 24 hours. Fluids and food intakes were monitored for three additional days after the end of the drug treatment period.
[…]. According to a between-subject design, four groups of msP rats (N=9/group) were prepared as described in Example 3. […] […]. Alcohol, water and food intakes were monitored at 2, 8 and 24 hours. Fluids and food intakes were monitored for three additional days after the end of the drug treatment period.

The test system of experiment [7] is msP rats. The experiment in a line: Cue-induced reinstatement of alcohol seeking. It is filed as in vivo, rat. The settings on record: naltrexone 0.25 and 1.0 mg/kg 1 hour before test.
Method: Cue-induced reinstatement of alcohol-seeking behaviour experimental procedures consisted of three phases: (1) conditioning phase; (2) extinction phase; and (3) reinstatement phase, as described below.
For the conditioning phase, at the completion of the fading procedure (see above), in 30 min daily sessions, animals were trained to discriminate between 10% alcohol and water. Beginning with self-administration training at the 10% alcohol concentration, discriminative stimuli (SD) predictive of alcohol versus water availability were presented during the alcohol and water self-administration sessions, respectively. The discriminative stimulus for alcohol consisted of the odour of an orange extract (S^+) whereas water availability (i.e. no reward) was signalled by an anise extract (S^−). The olfactory stimuli were generated by depositing six to eight drops of the respective extract into the bedding of the operant chamber. In addition, each lever-press resulting in delivery of alcohol was paired with illumination of the chamber's house light for 5 sec (CS^+). The corresponding cue during water sessions was a 5 second tone (70 dB) (CS). Concurrently with the presentation of these stimuli, a 5 sec. time-out period was in effect, during which responses were recorded but not reinforced. The olfactory stimuli serving as S^+ or S^− for alcohol availability were introduced one minute before extension of the levers and remained present throughout the 30-min. sessions. The bedding of the chamber was changed and bedding trays were cleaned between sessions. During the first three days of the conditioning phase, the rats were given alcohol sessions only. Subsequently, alcohol and water sessions were conducted in random order across training days, with the constraint that all rats received a total of 10 alcohol and 10 water sessions.
For the extinction phase, after the last conditioning day, rats were subjected to 30-min extinction sessions for 15 consecutive days. During this phase, sessions began by extension of the levers without presentation of the SD. […]
The test system of experiment [8] is alcoholic patients. The experiment in a line: Observational study of alcohol abuse in human patients. It is filed as in vivo. The text has this: ACT)+psychotherapy. […] Patients were instructed to record in a personal logbook the number of drinks per day and the time of the day drinks occurred. At the end of the study, the logbooks were returned to the clinical personnel who analyzed the data. […] In addition, biochemical parameters to ascertain alcohol detoxification and to measure recovery of physiological functions (i.e., hepatic function) were monitored monthly. Hematological parameters measured included: mean corpuscular volume (MCV); gamma-GT; aspartate aminotransferase (AST); alanine aminotransferase (ALT); and carbohydrate-deficient transferring (CDT). MCV and CDT are biomarkers for ethanol consumption, and GGT, ALT and AST are biomarkers for hepatic functionality. Data were analyzed by analysis of variance followed by Newman-Keuls post hoc tests when appropriate.

Experiment [9] concerns msP rats. Briefly: Yohimbine-induced (stress) reinstatement of alcohol seeking. The settings on record: naltrexone 0.25 and 1.0 mg/kg IP 1 hour before test.
From the text: Stress-induced reinstatement of alcohol-seeking experimental procedures consisted of three phases: (1) training phase; (2) extinction phase; and (3) reinstatement phase, as described below.
For the training phase, after completion of the fading procedure, msP rats were trained to self-administer 10% (v/v) alcohol for 15 days in 30-min daily sessions under a FR1 schedule of reinforcement. During the infusion, a stimulus house light was turned on for 5 s (time out; TO).
For the extinction phase, after the last alcohol self-administration session, animals were subjected to 30-min extinction sessions for 15 consecutive days.
The day after the last extinction session, rats were subjected to the reinstatement test.
Animals received all drug treatments according to a counterbalance Latin square design. A 3-day interval, during which animals were subjected to extinction sessions, was allowed between drug tests.
The mark [10] stands for this setting: pioglitazone 30 mg/day or naltrexone 50 mg/day + psychotherapy.

Turning to `CC(NC(C)(C)C)C(=O)c1cccc(Cl)c1` (stereo not shown) [bupropione], the “Percent inhibition of smoking: baseline data expressed as 100%” value in experiment [1] is given as 100%. Further, the “Percent inhibition of smoking” value in experiment [1] (T = 2 weeks of treatment, Pio 15-30 mg/daily, Var 0.5 to 2.0 mg/day) was 100%; in experiment [1] (T = 4 weeks, listed as Bup), 20% and 18% and 15%; in experiment [1] (T = 6 weeks, listed as Bup), 28% and 20% and 21%; in experiment [1] (T = 8 weeks), 34%; in [2] (T = 10 weeks, individual patients, listed as Bup), 40% and 45%. Also, in experiment [1] (bupropione patient who dropped out after four weeks), the “inhibition of smoking prior to dropping out” value stood at 20%. Moreover, the “craving score (visual analogic craving scale)” value in [1] is on record as “less effective”. The smoking reduced entry in experiment [2] (two bupropione patients after 10 weeks of drug administration) is listed as “about 40%”.

As for `c1cnc2cc3c(cc2n1)[C@@H]1CNC[C@H]3C1` [varenicline], in [1], the “Percent inhibition of smoking: baseline data expressed as 100%” value was determined as 100% and the “craving score (visual analogic craving scale)” value is given as “highest reduction”. The STAI anxiety score result in experiment [1] (over treatment weeks) is listed as “significantly reduced”. Moreover, the “weekly smoked cigarettes compared to bupropione (post hoc)” value in [1] (p<0.05) is “significant difference”. The “subjects reaching complete abstinence” value in experiment [1] (pioglitazone 4 patients, varenicline 3 patients) is recorded as “one”. The compound further returned an overall smoking reduction in [1] (three participants receiving varenicline) of 95%.

For `CC1(C)O[C@@H]2[C@@H](CO[C@@]3(COS(N)(=O)=O)OC(C)(C)O[C@@H]23)O1` [topiramate], in [3] (pioglitazone 10 mg/kg OS), the “ethanol intake, drug alone (post-hoc)” value is recorded as “did not significantly modify”. For the same compound, the “ethanol intake in a pilot study” value in experiment [3] is given as “did not reduce ethanol intake”. Besides, the “ethanol intake at 2 hours, drug alone” value in experiment [3] (pioglitazone 10 mg/kg OS, topiramate 30.0 mg/kg OS, p<0.05) is listed as “significant reduction”.

Turning to `Cc1nccn1CC1CCc2c(c3ccccc3n2C)C1=O` (stereo not shown) [ondansetron], the “ethanol intake, drug alone (post-hoc)” value in experiment [3] (pioglitazone 10 mg/kg OS) was “did not significantly modify”. Besides, the “ethanol intake in a pilot study” value in experiment [3] was “did not reduce ethanol intake”.

For `CC[C@@H](C(N)=O)N1CCCC1=O` [levetiracetam], the “ethanol intake, drug alone (post-hoc)” value in experiment [3] (pioglitazone 10 mg/kg OS) is “did not significantly modify”. In addition, the “ethanol intake in a pilot study” value in experiment [3] is reported as “did not reduce ethanol intake”.

With `NCC1(CC(=O)O)CCCCC1` [gabapentin], in experiment [3] (pioglitazone 10 mg/kg OS), the “ethanol intake, drug alone (post-hoc)” value was “did not significantly modify”. In experiment [3], the “ethanol intake in a pilot study” value was “did not reduce ethanol intake”.

On to `CN1CCN2c3ncccc3Cc3ccccc3C2C1` (stereo not shown) [mirtazapine], for which the “ethanol intake, drug alone (post-hoc)” value in experiment [3] (pioglitazone 10 mg/kg OS) was “did not significantly modify”. For the same compound, the “ethanol intake in a pilot study” value in [3] was “did not reduce ethanol intake”.

Turning to `CCCCN(CC)c1nc(C)nc2c1c(C)c(C)n2-c1c(C)cc(C)cc1C` [antalarmin], the “ethanol intake, drug alone (post-hoc)” value in experiment [3] (pioglitazone 10 mg/kg OS) was “did not significantly modify”. Moreover, in experiment [3], the “ethanol intake in a pilot study” value is given as “modestly reduced”.

Regarding `CNCCC(Oc1ccc(C(F)(F)F)cc1)c1ccccc1` (stereo not shown) [fluoxetine], the “ethanol intake, drug alone (post-hoc)” value in experiment [3] (pioglitazone 10 mg/kg OS) is “did not significantly modify”. In addition, the “ethanol intake in a pilot study” value in experiment [3] is recorded as “did not reduce ethanol intake”.

As for `COC(=O)[C@@H]1[C@H]2C[C@H]3c4[nH]c5ccccc5c4CCN3C[C@@H]2CC[C@@H]1O` [yohimbine], the “reinstatement of responding compared to extinction” value in experiment [4] is reported as “significant reinstatement”.

With `O=C(Nc1ccccc1)c1cc([N+](=O)[O-])ccc1Cl` [GW9662], the ethanol intake entry in experiment [3] (GW9662 5 μg/rat ICV alone) is recorded as “did not significantly affect”. The “pioglitazone-induced reduction of ethanol intake” value in experiment [3] (GW9662 1.0 and 5.0 mg/kg IP with pioglitazone 30 mg/kg OS) is recorded as “blocked the effect of pioglitazone in a dose related manner”. Also, in experiment [3] (GW9662 alone, 1.0 and 5.0 mg/kg IP), the ethanol drinking entry was “did not modify”.

Take `O=C1CC[C@@]2(O)[C@H]3Cc4ccc(O)c5c4[C@@]2(CCN3CC2CC2)[C@H]1O5` [naltrexone]: in experiment [5] (naltrexone […] IP alone or with pioglitazone 10 mg/kg OS), the “ethanol intake at 120 minutes” value is “did not show significant effects”. The “ethanol intake at 30, 60, and 90 minutes” value in experiment [5] (naltrexone […] IP alone or with pioglitazone 10.0 or 30.0 mg/kg OS) is “significantly reduced”. For the same compound, in experiment [6], the “ethanol intake at 8 and 24 hours” value was “not at 8 and 24 hours”; the “ethanol intake at 2 hours” value is “significantly reduced”; the “voluntary ethanol intake, overall” value is “significantly reduced”. Further, in [7], the “cue-induced (conditioned) reinstatement of alcohol-seeking” value was “significantly reduced”. Also, the “hepatic parameters (GGT, ALT, AST)” value in [8] (2-month treatment) was “ameliorated”. In addition, the “Depression Scale M.A.D.R.S (mean score values)” value (from here on “Depression Scale M.A.D.R.S”) in [8] (T = 1.2) amounted to 18. Besides, in [8] (T = 1.3), the “Depression Scale M.A.D.R.S” value is listed as 16. Also, in [8] (T = 1.4), the “Depression Scale M.A.D.R.S” value is on record as 17. Besides, the “Depression Scale M.A.D.R.S” value in experiment [8] (T = 2.1) was 17. In addition, the “Depression Scale M.A.D.R.S” value in experiment [8] (T = 2.2) is given as 15. In addition, the “effect on daily drinks, comparison of drugs” value in [8] (first two weeks of treatment, P<0.05) is reported as “more effective than pioglitazone”. Further, in experiment [8] (setting [10]), the “daily ethanol intake (number of daily drinks)” value is on record as “significantly reduced” and the “number of abstinence days” value is recorded as “increased”. In [8] (post hoc, P<0.001), the OCDS versus controls result is recorded as “statistically significant difference” and the “all five blood biomarkers versus controls (psychotherapy alone)” value was “statistical difference”. Further, the “yohimbine-induced reinstatement of alcohol seeking” value in [9] is given as “did not significantly reduce; also recorded: not modified”.
